What follows are compounds tested against T1, hTSHR (Homo sapiens, UniProt P16473) (assay: hTSHR TR-FRET cAMP Assay (inhibition of M22-stimulated cAMP production)). Conditions: Expi293F Inducible cells stably expressing hTSHR; cAMP HTRF; stimulated with EC80 of anti-TSHR antibody M22; 15 min compound preincubation, 30 min at 37° C.; read-out: Activity (IC50 bins).
T1 construct: expressed in transfected cells
Type: cell-based
Procedure, shortened: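 Readout was a cAMP HTRF ratio of 655/620 nm after lysis, scaled between the EC80 M22 signal (0% inhibition) and no-agonist vehicle (100%). Frozen induced Expi293F-hTSHR cells saw test compounds (0.5% DMSO) for 15 min at 37 °C before 30 min of M22 stimulation at EC80.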

T1 sequence (P16473 21-764): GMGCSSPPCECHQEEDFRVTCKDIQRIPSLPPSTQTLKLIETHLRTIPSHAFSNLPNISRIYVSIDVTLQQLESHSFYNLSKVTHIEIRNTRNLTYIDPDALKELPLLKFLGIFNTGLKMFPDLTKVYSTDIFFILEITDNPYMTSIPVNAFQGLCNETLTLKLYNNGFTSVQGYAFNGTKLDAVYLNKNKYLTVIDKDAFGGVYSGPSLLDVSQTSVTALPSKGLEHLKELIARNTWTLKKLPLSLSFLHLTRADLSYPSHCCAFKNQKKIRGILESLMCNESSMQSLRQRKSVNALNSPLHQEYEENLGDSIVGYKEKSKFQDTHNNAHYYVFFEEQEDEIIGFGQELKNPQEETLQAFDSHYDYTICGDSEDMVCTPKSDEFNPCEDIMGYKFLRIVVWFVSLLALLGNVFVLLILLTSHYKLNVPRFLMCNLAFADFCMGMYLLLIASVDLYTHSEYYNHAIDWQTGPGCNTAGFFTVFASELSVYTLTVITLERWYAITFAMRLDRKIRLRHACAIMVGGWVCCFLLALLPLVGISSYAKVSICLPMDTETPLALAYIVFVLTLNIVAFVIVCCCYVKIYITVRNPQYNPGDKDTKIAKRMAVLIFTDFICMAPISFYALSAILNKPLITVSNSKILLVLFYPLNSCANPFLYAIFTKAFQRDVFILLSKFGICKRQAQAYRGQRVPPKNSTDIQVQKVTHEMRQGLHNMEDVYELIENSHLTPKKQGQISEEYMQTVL

| SMILES | IC50 |
| --- | --- |
| C[C@@H](c1cccc(C(F)(F)F)c1)N1C(=O)CCc2cc(NC(=O)NC(C)(C)C)ccc21 [Example 60, (S)-3-tert-butyl-1-(2-oxo-1-{1-[3-(trifluoromethyl)phenyl]ethyl}-3,4-dihydroquinolin-6-yl)urea] | < 100 nM |
| Cc1cccc(CN2C(=O)CCc3cc(NC(=O)NC(C)(C)C)ccc32)c1 [Example 21, 1-(tert-butyl)-3-(1-(3-methylbenzyl)-2-oxo-1,2,3,4-tetrahydroquinolin-6-yl)urea] | < 100 nM |
| C[C@H]1Oc2cc(NC(=O)NC(C)(C)C)ccc2N([C@@H](C)c2nccc(C(F)(F)F)n2)C1=O [Example 316, 1-(tert-butyl)-3-((R)-2-methyl-3-oxo-4-((S)-1-(4-(trifluoromethyl)pyrimidin-2-yl)ethyl)-3,4-dihydro-2H-benzo[b][1,4]oxazin-7-yl)urea] | > 1000 nM |
| C[C@@H](c1cccc(N(C)C)n1)n1c(=O)cnc2cc(NC(=O)NC(C)(C)C)ccc21 [Example 145, (S)-1-(tert-butyl)-3-(1-(1-(6-(dimethyl-amino)pyridin-2-yl)ethyl)-2-oxo-1,2-dihydroquinoxalin-6-yl)urea] | 100 to 1000 nM |
| CC(C)(C)NC(=O)Nc1ccc2c(n1)CCC(=O)N2Cc1cccc(Cl)c1 [Example 281, 1-(tert-butyl)-3-(5-(3-chlorobenzyl)-6-oxo-5,6,7,8-tetrahydro-1,5-naphthyridin-2-yl)urea] | 100 to 1000 nM |
| C[C@@H](c1cccc(C(F)(F)F)n1)n1c(=O)cnc2cc(NC(=O)CCc3cccc(C(F)(F)F)c3)ccc21 [Example 299, (S)—N-(2-oxo-1-(1-(6-(trifluoromethyl)pyridin-2-yl)ethyl)-1,2-dihydroquinoxalin-6-yl)-3-(3-(trifluoromethyl)phenyl)propanamide] | 100 to 1000 nM |
| CC(C)c1cccc([C@H](C)n2c(=O)cnc3cc(NC(=O)NC(C)(C)C)ccc32)c1 [Example 136, (S)-1-(tert-butyl)-3-(1-(1-(3-iso-propylphenyl)ethyl)-2-oxo-1,2-dihydroquinoxalin-6-yl)urea] | 100 to 1000 nM |
| Cc1cccc(CN2C(=O)CCc3cc(NC(=O)NC(C)(C)C)ccc32)c1C#N [Example 53, 3-tert-butyl-1-{1-[(2-cyano-3-methylphenyl)methyl]-2-oxo-3,4-dihydroquinolin-6-yl}urea] | 100 to 1000 nM |
| C[C@@H](c1cccc(OC(F)(F)F)n1)n1c(=O)cnc2cc(NC(=O)CCc3cccc(C(F)(F)F)c3)ccc21 [Example 318, (S)—N-(2-oxo-1-(1-(6-(trifluoromethoxy)pyridin-2-yl)ethyl)-1,2-dihydroquinoxalin-6-yl)-3-(3-(trifluoromethyl)phenyl)propanamide] | 100 to 1000 nM |
| C[C@H]1Oc2cc(NC(=O)NC(C)(C)C)c(C#N)cc2N(Cc2cccc(C(F)F)c2)C1=O [Example 342, (R)-1-(tert-butyl)-3-(6-cyano-4-(3-(difluoromethyl)benzyl)-2-methyl-3-oxo-3,4-dihydro-2H-benzo[b][1,4]oxazin-7-yl)urea] | < 100 nM |
| CC1(C)CN(C(=O)Nc2ccc3c(c2)ncc(=O)n3Cc2ccccc2)C1 [Example 192, N-(1-benzyl-2-oxo-1,2-dihydroquinoxalin-6-yl)-3,3-dimethylazetidine-1-carboxamide] | > 1000 nM |
| C[C@H]1Oc2cc(NC(=O)NC(C)(C)C)ccc2N(Cc2cccc(C(F)F)c2)C1=O [Example 158, (R)-1-(tert-butyl)-3-(4-(3-(difluoro-methyl)benzyl)-2-methyl-3-oxo-3,4-dihydro-2H-benzo [b][1,4]oxazin-7-yl)urea] | < 100 nM |
| CC(C)(C)NC(=O)Nc1ccc2c(c1)CCC(=O)N2Cc1cccc(F)c1 [Example 26, 1-(tert-butyl)-3-(1-(3-fluorobenzyl)-2-oxo-1,2,3,4-tetrahydroquinolin-6-yl)urea] | < 100 nM |
| C[C@H]1Oc2cc(NC(=O)NC(C)(C)C)c(F)c(F)c2N(Cc2cccc(C(F)F)c2)C1=O [Example 340, (R)-1-(tert-butyl)-3-(4-(3-(difluoromethyl)benzyl)-5,6-difluoro-2-methyl-3-oxo-3,4-dihydro-2H-benzo[b][1,4]oxazin-7-yl)urea] | 100 to 1000 nM |
| CC(C)(C)NC(=O)Nc1ccc2c(c1)CCC(=O)N2Cc1ccccc1 [Example 1, 1-(1-benzyl-2-oxo-1,2,3,4-tetrahydroquinolin-6-yl)-3-(tert-butyl)urea] | < 100 nM |
| C[C@H]1Oc2cc(NC(=O)NC(C)(C)C)ccc2N(Cc2ccnc(C(F)(F)F)c2)C1=O [Example 163, (R)-1-(tert-butyl)-3-(2-methyl-3-oxo-4-((2-(trifluoro-methyl)pyridin-4-yl)methyl)-3,4-dihydro-2H-benzo [b][1,4]oxazin-7-yl)urea] | 100 to 1000 nM |
| C[C@@H](c1cccc(OC(F)(F)F)c1)n1c(=O)cnc2cc(NC(=O)NC3(C(F)(F)F)CCC3)ccc21 [Example 214, (S)-1-(2-oxo-1-(1-(3-(trifluoromethoxy)phenyl)ethyl)-1,2-dihydroquinoxalin-6-yl)-3-(1-(trifluoromethyl)cyclobutyl)urea] | 100 to 1000 nM |
| C[C@H](c1ccccc1)N1C(=O)CCc2cc(NC(=O)NC(C)(C)C)ccc21 [Example 14, (R)-1-(tert-butyl)-3-(2-oxo-1-(1-phenylethyl)-1,2,3,4-tetrahydroquinolin-6-yl)urea] | > 1000 nM |

| SMILES | IC50 |
| --- | --- |
| Cn1ccc(CN2C(=O)CCc3cc(NC(=O)NC(C)(C)C)ccc32)n1 [Example 4, 1-(tert-butyl)-3-(1-((1-methyl-1H-pyrazol-3-yl)methyl)-2-oxo-1,2,3,4-tetrahydroquinolin-6-yl)urea] | > 1000 nM |
| C[C@H](c1cncc(C(F)(F)F)n1)N1C(=O)[C@@H](C)Oc2cc(NC(=O)NC(C)(C)C)ccc21 [Example 307, 1-(tert-butyl)-3-((R)-2-methyl-3-oxo-4-((R)-1-(6-(trifluoromethyl)pyrazin-2-yl)ethyl)-3,4-dihydro-2H-benzo[b][1,4]oxazin-7-yl)urea] | 100 to 1000 nM |
| CC(c1cc(C(F)(F)F)ccn1)n1c(=O)cnc2cc(NC(=O)NC3(C)CCC3)ccc21 (centres unmarked) [Example 337, 1-(1-methylcyclobutyl)-3-(2-oxo-1-(1-(4-(trifluoromethyl)pyridin-2-yl)ethyl)-1,2-dihydroquinoxalin-6-yl)urea] | 100 to 1000 nM |
| CC(c1ccccc1)N1C(=O)CCc2cc(NC(=O)NC(C)(C)C)ccc21 (centres unmarked) [Example 3, 1-(tert-butyl)-3-(2-oxo-1-(1-phenylethyl)-1,2,3,4-tetrahydroquinolin-6-yl)urea] | < 100 nM |
| COCC1Cc2cc(NC(=O)NC(C)(C)C)ccc2N(Cc2ccccc2)C1=O (centres unmarked) [Example 11, 1-(1-benzyl-3-(methoxymethyl)-2-oxo-1,2,3,4-tetrahydroquinolin-6-yl)-3-(tert-butyl)urea] | 100 to 1000 nM |
| CC(C)(C)NC(=O)Nc1ccc2c(c1)CC(CO)C(=O)N2Cc1ccccc1 (centres unmarked) [Example 51, 1-(1-benzyl-3-(hydroxymethyl)-2-oxo-1,2,3,4-tetrahydroquinolin-6-yl)-3-(tert-butyl)urea] | > 1000 nM |
| C[C@@H](c1cccc(CCN(C)C(=O)C(C)(C)O)c1)n1c(=O)cnc2cc(NC(=O)NC(C)(C)C)ccc21 [Example 120, (S)-N-(3-(1-(6-(3-(tert-butyl)ureido)-2-oxoquinoxalin-1 (2H)-yl)ethyl)phenethyl)-2-hydroxy-N,2-dimethylpropanamide] | > 1000 nM |
| C[C@@H](c1cccc(Cl)c1)N1C(=O)N(C)Cc2cc(NC(=O)NC(C)(C)C)ccc21 [Example 46] | < 100 nM |
| CC(C)(C)NC(=O)Nc1ccc2c(c1)OCC(=O)N2C(c1ccccc1)C(F)(F)F (centres unmarked) [Example 296, 1-(tert-butyl)-3-(3-oxo-4-(2,2,2-trifluoro-1-phenylethyl)-3,4-dihydro-2H-benzo[b][1,4]oxazin-7-yl)urea] | 100 to 1000 nM |
| C[C@@H](c1ccccc1)N1C(=O)CCc2nc(NC(=O)NC(C)(C)C)c(C(F)(F)F)cc21 [Example 377, (S)-1-(tert-butyl)-3-(6-oxo-5-(1-phenylethyl)-3-(trifluoromethyl)-5,6,7,8-tetrahydro-1,5-naphthyridin-2-yl)urea] | < 100 nM |
| CC(C)(C)NC(=O)Nc1ccc2c(c1)ncc(=O)n2Cc1cccc2c1OCCC2 [Example 96, 1-(tert-buty1)-3-(1-(chroman-8-ylmethyl)-2-oxo-1,2-dihydro-quinoxalin-6-yl)urea] | 100 to 1000 nM |
| CC(C)(C)NC(=O)Nc1ccc2c(c1)OC(C)(C)C(=O)N2Cc1ccccc1 [Example 292, 1-(4-benzyl-2,2-dimethyl-3-oxo-3,4-dihydro-2H-benzo[b][1,4]oxazin-7-yl)-3-(tert-butyl)urea] | > 1000 nM |
| C[C@@H](c1cccc(OC(F)(F)F)c1)n1c(=O)cnc2cc(NC(=O)C3CCC3(C)C)ccc21 (stereo in doubt) [Example 219, (S)-2,2-dimethyl-N-(2-oxo-1-((S)-1-(3-(trifluoromethoxy)phenyl)ethyl)-1,2-dihydroquinoxalin-6-yl) cyclobutane-1-carboxamide] | < 100 nM |
| CC(C)(C)NC(=O)Nc1ccc2c(c1)CCC(=O)N2CC1CCCCC1 [Example 64, 1-(tert-butyl)-3-(1-(cyclohexylmethyl)-2-oxo-1,2,3,4-tetrahydroquinolin-6-yl)urea] | > 1000 nM |
| C[C@@H](c1cccc(OC(F)(F)F)c1)n1c(=O)cnc2cc(NC(=O)NC34CC(C3)C4)ccc21 [Example 206, (S)-1-(bicycl[1.1.1]pentan-1-yl)-3-(2-oxo-1-(1-(3-(trifluoromethoxy)phenyl)ethyl)-1,2-dihydroquinoxalin-6-yl)urea] | 100 to 1000 nM |
| CC1Oc2cc(NC(=O)NC(C)(C)C)ccc2N(Cc2cccc(Cl)c2)C1=O (single isomer, unassigned) [Example 43] | < 100 nM |
| C[C@H]1Oc2nc(NC(=O)NC(C)(C)C)c(C(F)(F)F)cc2N([C@@H](C)c2ccccc2)C1=O [Example 376, 1-(tert-butyl)-3-((R)-3-methyl-2-oxo-1-((S)-1-phenylethyl)-7-(trifluoromethyl)-2,3-dihydro-1H-pyrido[2,3-b][1,4]oxazin-6-yl)urea] | < 100 nM |

Reference: patent publication US20260365628A1, “SUBSTITUTED 3,4-DIHYDROQUINOLINONE INHIBITORS OF TSHR” (Septerna, Inc., priority 2022, published 2026)
